Assays:
Type in all cases: in vivo
[1] = tested on: corn seed of a common inbred parental line; assay: Corn plant emergence after seed treatment; conditions: for Delay in Median Emergence Time Compared to Control / Median Time to Emergence: 20.5° C.
Experimental: Corn seed of a common inbred parental line were treated using standard seed treatment equipment with water (control), 40 μg, 80 μg or 160 μg/seed S-ABA, 10 μg, 20 μg, 40 μg or 80 μg/seed 3′-methyl-(S)-abscisic acid, or 10 μg, 20 μg, 40 μg or 80 μg/seed 3′-propargyl-(S)-abscisic acid. Post treatment, the seeds were planted in 12×3×2″ plastic boxes containing one kilogram of sieved, pre-moistened field soil. Fifty seeds were planted in each box at three centimeter depth and two replicate boxes per treatment at 20.5° C. under constant illumination. Two replications of the experiment were incubated under constant light in a 20.5° C. growth chamber. Emergence counts were recorded almost daily until seedling emergence had ceased (42 days). Daily counts were converted to proportions of the final emergence to estimate the median emergence time for each box.

[2] = tested on: corn plants, commercial 111 day, central corn belt variety; assay: Corn plant leaf rolling assay and shoot fresh weight under drought; conditions: for Shoot Fresh Weight, 15 DAS: 12 days drought then 3 days watering; for Average # of Rolled Leaves/Plant, 5 DAS / Average # of Rolled Leaves/Plant, 6 DAS / Average # of Rolled Leaves/Plant, 8 DAS: water withheld; for Average # of Rolled Leaves/Plant, 5 DAS: 5 days after spraying; for Average # of Rolled Leaves/Plant, 6 DAS: 6 days after spraying; for Average # of Rolled Leaves/Plant, 8 DAS: 8 days after spraying
Experimental: (§1) In this greenhouse experiment, foliar spray treatments containing 3′-methyl-(S)-abscisic acid, 3′-propargyl-(S)-abscisic acid or (S)-abscisic acid were applied to corn plants to evaluate their effect on gas exchange, as measured through stomatal conductance. Corn plants of a commercial, 111 day, central corn belt variety were grown in the greenhouse under optimal conditions for five weeks and were size-matched into ten groups of five plants. Using an aerosol sprayer, each group was sprayed to drip (25 milliliters per plant) with solutions containing a non-ionic surfactant (0.125%, v/v) and water (control), 2.5 mg, 7.5 mg or 25 mg/plant 3′-methyl-(S)-abscisic acid, or 2.5 mg, 7.5 mg or 25 mg/plant 3′-propargyl-(S)-abscisic acid, or 7.5 mg, 25 mg or 75 mg/plant (5)-ABA, respectively. After spraying, plants were returned to the greenhouse for the duration of the experiment. Stomatal conductance was measured using an AP4 porometer (Delta T Devices, Cambridge, UK) and the conductance for each plant was recorded at approximately the same time of day (˜10 AM) prior to treatment application as well as 1, 2, 5, 6, 9 and 16 days post-spraying. This study was conducted as described above with the following the exceptions. After spraying, plants were put back in the greenhouse and water was withheld for twelve days, simulating drought stress. The plants were then watered to saturation for three consecutive days before the plant shoots were cut at the soil surface and subsequently weighed in grams (fresh weight). Leaf-rolling data and fresh weight data were recorded for each plant following treatment application at the times specified below in Table 6.

[3] = tested on: corn plants, 111 day, central corn belt variety; assay: Corn plant chilling (growth rate); conditions: for Growth during stress recovery following cold: 3′-propargyl-(S)-ABA particularly between 11.4 and 113.7 g/acre, S-ABA at rates up to 1000 mg/liter (113.7 g/acre); for Maintenance of growth under cold (10° C.) conditions: S-ABA even at 1000 mg/l (113.7 g/acre); for Growth Rate, Greenhouse 7-9 d post spray: after chilling; for Growth Rate, Greenhouse 0-2 d post spray: before chilling; for Growth Rate, Growth Chamber 10° C. 2-7 d post spray: during chilling at 10° C.
Experimental: Corn seeds of a 111 day, central corn belt variety were planted in 2-quart pots filled with medium. After the corn grew for 10 days in the greenhouse at 24±3° C. (V2 to V3 growth stage), the plants received a foliar spray application of aqueous solutions of the test compounds containing 0.25% non-ionic surfactant with a volume equivalent to 30 gallons/acre. After spraying, plants were moved back to the greenhouse for 2 days, then moved to a growth chamber kept at 10° C. with a 16:8 light:dark cycle (cold treatment). After 5 days in the cold, plants were returned to the greenhouse for 2 days before being harvested destructively. Results of the studies comparing the growth rate of plants treated with S-ABA with 3′-methyl-(S)-ABA during the experiment are shown in Table 3. In additional studies, the effect of S-ABA and 3′-propargyl-(S)-ABA on corn growth rate in chilling studies was compared.

[4] = tested on: corn plants, commercial 111 day, central corn belt variety; assay: Corn stomatal conductance; conditions: for Average Stomatal Conductance (% of Control), 6 DAS: 6 days after spraying; for Average Stomatal Conductance (% of Control), 16 DAS: 16 days after spraying
Experimental: as §1, with “post-spraying.” for “post-spraying. This study was conducted as described above with the following the exceptions. After spraying, plants were put back in the greenhouse and water was withheld for twelve days, simulating drought stress. The plants were then watered to saturation for three consecutive days before the plant shoots were cut at the soil surface and subsequently weighed in grams (fresh weight). Leaf-rolling data and fresh weight data were recorded for each plant following treatment application at the times specified below in Table 6.”

[5] = Table 4 study, foliar spray 30 mg/l (3.4 g/acre)
[6] = Table 4 study, foliar spray 100 mg/l (11.4 g/acre)
[7] = Table 4 study, foliar spray 300 mg/l (34.1 g/acre)
[8] = Table 4 study, foliar spray 1000 mg/l (113.7 g/acre)
[9] = foliar spray 100 ppm or 2.5 mg/plant
[10] = foliar spray 300 ppm or 7.5 mg/plant
[11] = foliar spray 1000 ppm or 25 mg/plant
[12] = Table 3 study, foliar spray 1000 mg/l (113.7 g/acre)
[13] = foliar spray 3000 ppm or 75 mg/plant

C#CCC1=C(C)[C@](O)(/C=C/C(C)=C\C(=O)O)C(C)(C)CC1=O [3′-propargyl-(S)-ABA, (2Z,4E)-5-((S)-1-hydroxy-2,6,6-trimethyl-4-oxo-3-(prop-2-yn-1-yl)cyclohex-2-en-1-yl)-3-methylpenta-2,4-dienoic acid] was tested, and the “Additional delay in emergence in comparison with S-ABA” value ([1]; 80 μg/seed rate) was 14.3 calendar days, the “Relative potency of S-ABA, dose required to delay the median emergence time by two days” value ([1]; regression) was 2.6 times and the “Delay in Median Emergence Time Compared to Control” value ([1]; seed treatment 10 μg/seed) was 8.6 days. For the same molecule, the “Median Time to Emergence” value ([1]; seed treatment 10 μg/seed) was 13.4 days, the “Delay in Median Emergence Time Compared to Control” value ([1]; seed treatment 20 μg/seed) was 11.3 days and the “Median Time to Emergence” value ([1]; seed treatment 20 μg/seed) was 16.2 days. For the same molecule, the “Delay in Median Emergence Time Compared to Control” value ([1]; seed treatment 40 μg/seed) was 16.2 days, the “Median Time to Emergence” value ([1]; seed treatment 40 μg/seed) was 21.0 days and the “Delay in Median Emergence Time Compared to Control” value ([1]; seed treatment 80 μg/seed) was 22.4 days. For the same molecule, the “Median Time to Emergence” value ([1]; seed treatment 80 μg/seed) was 27.3 days, the “Shoot Fresh Weight, 15 DAS” value ([2]; 100 ppm or 2.5 mg/plant) was 263.9 grams and the “Average # of Rolled Leaves/Plant, 5 DAS” value ([2]; 100 ppm or 2.5 mg/plant) was 1.8. For the same molecule, the “Average # of Rolled Leaves/Plant, 6 DAS” value ([2]; 100 ppm or 2.5 mg/plant) was 3.8, the “Average # of Rolled Leaves/Plant, 8 DAS” value ([2]; 100 ppm or 2.5 mg/plant) was 7.2 and the “Shoot Fresh Weight, 15 DAS” value ([2]; 300 ppm or 7.5 mg/plant) was 313.1 grams. The “Average # of Rolled Leaves/Plant, 5 DAS” value ([2]; 300 ppm or 7.5 mg/plant) was 1.8, the “Average # of Rolled Leaves/Plant, 6 DAS” value ([2]; 300 ppm or 7.5 mg/plant) was 3.6 and the “Average # of Rolled Leaves/Plant, 8 DAS” value ([2]; 300 ppm or 7.5 mg/plant) was 8.0. For the same molecule, the “Shoot Fresh Weight, 15 DAS” value ([2]; 1000 ppm or 25 mg/plant) was 334.4 grams, the “Average # of Rolled Leaves/Plant, 5 DAS” value ([2]; 1000 ppm or 25 mg/plant) was 0.0 and the “Average # of Rolled Leaves/Plant, 6 DAS” value ([2]; 1000 ppm or 25 mg/plant) was 0.0. The “Average # of Rolled Leaves/Plant, 8 DAS” value ([2]; 1000 ppm or 25 mg/plant) was 7.0, the “Growth during stress recovery following cold” value [3] was “did aid growth during stress recovery” and the “Maintenance of growth under cold (10° C.) conditions” value [3] was “did not maintain growth under cold stress”. For the same molecule, the “Growth Rate, Greenhouse 7-9 d post spray” value [3, 5] was 1.978 cm/day, the “Growth Rate, Greenhouse 0-2 d post spray” value [3, 5] was 3.239 cm/day and the “Growth Rate, Growth Chamber 10° C. 2-7 d post spray” value [3, 5] was 1.258 cm/day. The “Growth Rate, Greenhouse 7-9 d post spray” value [3, 6] was 2.489 cm/day, the “Growth Rate, Greenhouse 0-2 d post spray” value [3, 6] was 2.294 cm/day and the “Growth Rate, Growth Chamber 10° C. 2-7 d post spray” value [3, 6] was 1.173 cm/day. The “Growth Rate, Greenhouse 7-9 d post spray” value [3, 7] was 2.500 cm/day, the “Growth Rate, Greenhouse 0-2 d post spray” value [3, 7] was 2.544 cm/day and the “Growth Rate, Growth Chamber 10° C. 2-7 d post spray” value [3, 7] was 1.033 cm/day. The “Growth Rate, Greenhouse 7-9 d post spray” value [3, 8] was 2.300 cm/day, the “Growth Rate, Greenhouse 0-2 d post spray” value [3, 8] was 2.172 cm/day and the “Growth Rate, Growth Chamber 10° C. 2-7 d post spray” value [3, 8] was 0.787 cm/day. The “Average Stomatal Conductance (% of Control), 6 DAS” value [4, 9] was 80.6 % of Control, the “Average Stomatal Conductance (% of Control), 16 DAS” value [4, 9] was 87.7 % of Control and the “Average Stomatal Conductance (% of Control), 6 DAS” value [4, 10] was 74.3 % of Control. The “Average Stomatal Conductance (% of Control), 16 DAS” value [4, 10] was 77.9 % of Control, the “Average Stomatal Conductance (% of Control), 6 DAS” value [4, 11] was 56.0 % of Control and the “Average Stomatal Conductance (% of Control), 16 DAS” value [4, 11] was 59.0 % of Control. For the same molecule, the “Relative potency resulting in a 25% reduction in transpiration, times that seen with S-ABA” value ([4]; regression of the data in Table 5) was 4.83 times.
With CC1=CC(=O)CC(C)(C)[C@@]1(O)/C=C/C(C)=C/C(=O)O [S-ABA, (S)-abscisic acid] the “Delay in Median Emergence Time Compared to Control” value ([1]; seed treatment 40 μg/seed) was 5.6 days, the “Median Time to Emergence” value ([1]; seed treatment 40 μg/seed) was 10.5 days and the “Delay in Median Emergence Time Compared to Control” value ([1]; seed treatment 80 μg/seed) was 8.2 days. The “Median Time to Emergence” value ([1]; seed treatment 80 μg/seed) was 13.0 days, the “Delay in Median Emergence Time Compared to Control” value ([1]; seed treatment 160 μg/seed) was 9.7 days and the “Median Time to Emergence” value ([1]; seed treatment 160 μg/seed) was 14.6 days. For the same molecule, the “Shoot Fresh Weight, 15 DAS” value ([2]; 300 ppm or 7.5 mg/plant) was 258.9 grams, the “Average # of Rolled Leaves/Plant, 5 DAS” value ([2]; 300 ppm or 7.5 mg/plant) was 2.8 and the “Average # of Rolled Leaves/Plant, 6 DAS” value ([2]; 300 ppm or 7.5 mg/plant) was 2.6. For the same molecule, the “Average # of Rolled Leaves/Plant, 8 DAS” value ([2]; 300 ppm or 7.5 mg/plant) was 8.4, the “Shoot Fresh Weight, 15 DAS” value ([2]; 1000 ppm or 25 mg/plant) was 282.5 grams and the “Average # of Rolled Leaves/Plant, 5 DAS” value ([2]; 1000 ppm or 25 mg/plant) was 1.2. For the same molecule, the “Average # of Rolled Leaves/Plant, 6 DAS” value ([2]; 1000 ppm or 25 mg/plant) was 3.0, the “Average # of Rolled Leaves/Plant, 8 DAS” value ([2]; 1000 ppm or 25 mg/plant) was 8.8 and the “Shoot Fresh Weight, 15 DAS” value ([2]; 3000 ppm or 75 mg/plant) was 301.7 grams. The “Average # of Rolled Leaves/Plant, 5 DAS” value ([2]; 3000 ppm or 75 mg/plant) was 0.0, the “Average # of Rolled Leaves/Plant, 6 DAS” value ([2]; 3000 ppm or 75 mg/plant) was 0.2 and the “Average # of Rolled Leaves/Plant, 8 DAS” value ([2]; 3000 ppm or 75 mg/plant) was 7.2. The “Effectiveness at reducing leaf rolling” value ([2]; S-ABA 75 mg/plant compared with 25 mg of the derivatives) was “as effective at reducing leaf rolling as 25 mg of 3′-methyl-(S)-abscisic acid, or 3′-propargyl-(S)-abscisic acid”, the “Growth during stress recovery following cold” value [3] was “did not aid recovery growth” and the “Maintenance of growth under cold (10° C.) conditions” value [3] was “did not maintain growth”. For the same molecule, the “Growth Rate, Greenhouse 7-9 d post spray” value [3, 12] was 3.270 cm/day, the “Growth Rate, Greenhouse 0-2 d post spray” value [3, 12] was 4.315 cm/day and the “Growth Rate, Growth Chamber 10° C. 2-7 d post spray” value [3, 12] was 0.766 cm/day. The “Growth Rate, Greenhouse 7-9 d post spray” value [3, 8] was 2.161 cm/day, the “Growth Rate, Greenhouse 0-2 d post spray” value [3, 8] was 3.156 cm/day and the “Growth Rate, Growth Chamber 10° C. 2-7 d post spray” value [3, 8] was 1.249 cm/day. For the same molecule, the Leaf area ([3]; in one of two studies, not repeatable across studies, 3′-methyl-(S)-abscisic acid at 30, 100 and 300 mg/liter) was “increased”, the “Average Stomatal Conductance (% of Control), 6 DAS” value [4, 10] was 88.5 % of Control and the “Average Stomatal Conductance (% of Control), 16 DAS” value [4, 10] was 89.3 % of Control. For the same molecule, the “Average Stomatal Conductance (% of Control), 6 DAS” value [4, 11] was 83.7 % of Control, the “Average Stomatal Conductance (% of Control), 16 DAS” value [4, 11] was 88.0 % of Control and the “Average Stomatal Conductance (% of Control), 6 DAS” value [4, 13] was 61.3 % of Control. For the same molecule, the “Average Stomatal Conductance (% of Control), 16 DAS” value [4, 13] was 62.5 % of Control.

Source: patent US10314307B2, “(S)-abscisic acid derivatives for improving plant stress tolerance” (Valent BioSciences Corporation, priority 2015, dated 2019)
